# Measurements taken from paper PMC8945599, “VEGFA, B, C: Implications of the C-Terminal Sequence Variations for the Interaction with Neuropilins” (Biomolecules, 2022).
# Where no end group is shown, it is not given here.
# Key:
# [1] = target: T1, NRP1-b1 (b1 domain of Neuropilin-1) (Homo sapiens, UniProt O14786); test: Surface plasmon resonance, peptide binding to immobilised NRP1-b1; details: SPR, Biacore T200, protein immobilised on CM5 chip (1000 RU), peptide 64 µM to 0.125 µM, 20 mM Tris pH 7.9, 50 mM NaCl
# T1 construct: 6-His-tag with TEV protease cleavage site (N); made in house; host or cells: Rosetta-gami2(DE3)pLysS E. coli
# T1 sequence (O14786 275-424 limits assumed): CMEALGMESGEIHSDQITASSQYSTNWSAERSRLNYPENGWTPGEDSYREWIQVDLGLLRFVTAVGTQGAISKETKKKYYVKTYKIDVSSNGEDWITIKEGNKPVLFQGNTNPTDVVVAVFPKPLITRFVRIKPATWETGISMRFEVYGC
# Source text: (§1) Proteins were expressed and purified as previously described. NRP1-b1 and NRP2-b1 were expressed in Rosetta-gami2(DE3)pLysS E.coli cells that were transformed with a pET-15b vector containing NRP1-b1 and NRP2-b1 sequences with an N-terminal 6-His-tag and a TEV protease cleavage site. After the cells were harvested by centrifugation and lysed by sonication, the proteins were purified from the filtered cell extract. Purification protocol, as described in Tsai et al. (2016), included a combination of nickel ion-affinity chromatography, size exclusion, and a final ion exchange chromatography step.
# (§2) SPR was performed using the Biacore T200 Enhanced Sensitivity model (GE, Healthcare, UK). Protein was immobilised on a CM5 chip, following the manufacturer’s instructions until it reached 1000 response units (RU). SPR was run with a range of peptide concentrations from 64 µM to 0.125 µM, in a buffer of 20 mM Tris pH 7.9, 50 mM NaCl. Biacore T200 evaluation software was used for data analysis.
# NRP1-b1 = target: T2, NRP1-b1 (Homo sapiens, UniProt O14786); test: Thermostability shift assay, NRP1-b1; assay type: binding; details: 5 µM protein, 1 mM ligand, 10X SYPRO Orange, LightCycler 480 II; average of four measurements
# T2 construct: 6-His-tag with TEV protease cleavage site (N); made in house; host or cells: Rosetta-gami2(DE3)pLysS E. coli
# T2 sequence (O14786 275-424 limits assumed): T1 sequence (O14786 275-424 limits assumed)
# Experimental: Thermostability assays were performed on the LightCycler 480 II (Roche) with a final concentration of 5 µM protein, 1 mM ligand and 10X of SYPRO Orange, in DMSO (Thermo Fisher). Negative and positive control experiments were performed using the protein with buffer alone or the ligand without protein and the protein with a strongly binding ligand EG01377, respectively. Experiments were carried out in duplicates on two separate days for two different batches of protein preparations and the values in the table represent the averages from the four measurements.
# [2] = target: T3, NRP2-b1 (b1 domain of Neuropilin-2) (Homo sapiens, UniProt O60462); test: Surface plasmon resonance, peptide binding to immobilised NRP2-b1; details: SPR, Biacore T200, protein immobilised on CM5 chip (1000 RU), peptide 64 µM to 0.125 µM, 20 mM Tris pH 7.9, 50 mM NaCl
# T3 construct: 6-His-tag with TEV protease cleavage site (N); made in house; host or cells: Rosetta-gami2(DE3)pLysS E. coli
# T3 sequence (O60462 277-427 limits assumed): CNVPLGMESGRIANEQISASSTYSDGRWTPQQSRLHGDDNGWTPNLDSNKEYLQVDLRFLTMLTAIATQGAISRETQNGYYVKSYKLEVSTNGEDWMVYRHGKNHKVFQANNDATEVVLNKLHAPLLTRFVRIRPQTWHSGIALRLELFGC
# Source text: as §1, §2
Kd [1] [µM],shift in Tm (ΔTm) of NRP1-b1 (NRP1-b1) [°C],Kd [2] [µM],Substance
33.2,2.0 ± 0.3,27.1,Ac-SIIRR [C]
33.1,3.0 ± 0.2,92.2,"Ac-AAAAR [Con, reference compound]"
10,3.6 ± 0.2,24.8,Ac-RPQPR [B186]
7.87,3.5 ± 0.2,30.9,Ac-DKPRR [A165]
4.12,,13,Ac-RKLRR [B167]
